Measured values published in patent US10993920B2, “2-dodecyl-6-methoxycyclohexa-2,5-diene-1,4-dione as a cancer therapeutic” (MIDDLE TENNESSEE STATE UNIVERSITY, priority 2014, dated 2021).
pIC50: −log10 of the molar value.

Tests used:
BT20 [1] = experiment: Apoptosis assay (Annexin V/7-AAD); format: cell-based, human; conditions: BT20, 48 h, concentration-dependent
Description: (§1) MCF-7 and BT20 cells were seeded in a 96-well plate (Corning Costar) at a density of 8,000 cells/well and were subsequently treated with different concentrations (10, 32, 100 μM) of DMDD for 48 h. Afterwards, the cells were stained with Annexin V (Millipore) and 7-Aminoactinomycin (7-AAD) (Millipore), and analyzed on a Guava flow cytometer using InCyte software (Millipore).

MCF-7 [2] = experiment: Apoptosis assay (Annexin V/7-AAD); format: cell-based, human; conditions: MCF-7, 48 h, concentration-dependent
Description: as §1

BT20 [3] = experiment: Cell cycle analysis (PI staining); format: cell-based, human; conditions: BT20, 24 h; increased from 46%; not concentration-dependent
Description: (§2) MCF-7 and BT20 cells were first synchronized in the G0 phase by culturing cells for 24 h in serum-free medium, and then treated with 100 μM DMDD for 24 h. Cell cycle analysis was performed using propidium iodide (PI) (Millipore) staining as described (27). Cells were analyzed using a Guava flow cytometer with InCyte software (Millipore).

MCF-7 [4] = experiment: Cell cycle analysis (PI staining); format: cell-based, human; conditions: MCF-7, 24 h; increased from 52%; not concentration-dependent
Description: as §2

THP-1 = experiment: AlamarBlue cell viability of THP-1 cells; format: cell-based, human; conditions: with or without LPS stimulation
Description: (§3) THP-1 cells were seeded in a 96 well plate at a density of 5×10^5 cells/well, and incubated with 100 nM phorbol-12-myristate-13-acetate (PMA) (Sigma) for 72 h. After washing the wells with warm RPMI 1640 medium, cells were pretreated with various concentrations of DMDD (10, 32, 100 μM) for 30 minutes followed by 100 ng/ml Salmonella enterica serotype typhimurium lipopolysaccharide (LPS) (Sigma). Dexamethasone at 1 μM (Sigma) was used as a positive control. After 4 h of stimulation, supernatants were collected for the quantification of human TNF-α using the Duoset enzyme-linked immunosorbent assay (ELISA) development kit (R&D Systems). AlamarBlue cell viability reagent (Invitrogen) was used to access cell integrity, after the supernatant was removed, at a fluorescent excitation wavelength of 555 nm and emission wavelength of 590 nm.

[5] = system: caspase 3/7 in MCF-7 cells; experiment: Caspase-Glo 3/7 activation assay; format: cell-based, human; conditions: MCF-7, 4 h, concentration-dependent
Description: Caspase 3/7 and caspase 8 activities were analyzed using an in-situ luminescent maker in MCF-7 and BT20 cells respectively. […] Caspases activity was then determined using the Caspase-Glo 3/7 Assay (Promega) or the Caspase-Glo 8 Assay (Promega) according to the manufacturer's instructions. Briefly, cells were incubated with Caspase-Glo 3/7 substrate or Caspase-Glo 8 substrate and the luminescence of each sample was measured using a SpectraMax M2e Microplate Reader (Molecular Devices).

BT20 [6] = experiment: Anti-proliferation assay (PrestoBlue) and IC50 determination; format: cell-based, human
Description: (§4) BT20 and MCF-7, human breast carcinoma cell lines (ATCC), were maintained in RPMI 1640 and Dulbecco's Modified Eagle Medium (DMEM) (Sigma), respectively. THP-1, a human monocytic leukemic cell line (ATCC), was maintained in RPMI 1640. HMEC, a normal human mammary epithelial cell line (ATCC), was maintained in McCoy's 5A (ATCC). All mediums were supplemented with 10% fetal bovine serum (FBS) (Gibco) and 1% penicillin-streptomycin and all cells were incubated in a humidified atmosphere with 5% CO2 at 37° C.
(§5) The proliferation inhibition potential of DMDD was determined in human breast cancer cell lines MCF-7 and BT20 by a fluorescence dye staining method with the normal cell line HMEC serving as a control. Cells were seeded at a density of 4˜5×10^3 cells/well in a 96-well tissue culture-treated plate (Corning Costar) and were incubated overnight. They were then treated with DMDD at final concentrations of 320 μM, 100 μM, 32 μM, 10 μM, 3.2 μM, 1 μM, and 0.32 μM. An experimental control with cells only was also included. After incubation for 48 h, the viability of cells was assessed using PrestoBlue dye (Invitrogen) according to manufacturer's protocol. The fluorescence intensity was measured on a SpectraMax M2e microplate reader (Molecular Devices, Inc.) at a fluorescent excitation wavelength of 555 nm and emission wavelength of 590 nm. The results were expressed as a percentage, relative to untreated control cells, and the half maximal inhibitory concentration (IC50) values were calculated using non-linear regression analysis.

MCF-7 [7] = experiment: as above; format: cell-based, human
Description: as §4, §5

[8] = diabetic mouse model; cited from earlier work
[9] = system: NF-κB nuclear translocation in MCF-7 cells; experiment: Inhibition of TNF-α activated NF-κB translocation (HCS); format: cell-based, human; conditions: MCF-7, 2 h, 10 ng/ml TNF-α; concentration-dependent
Description: MCF-7 cells were seeded in a 96 well plate (Corning Costar) at a density of 8,000 cells/well and then treated with 100 μM DMDD for 2 h, followed by the addition of 10 ng/ml tumor necrosis factor-alpha (TNF-α) (Sigma). Untreated cells and cells treated with 10 ng/ml TNF-α alone served as controls. Cells were fixed, permeabilized, and sequentially stained with Nuclear factor kappa B (NF-κB) primary antibody, Dylight 488-conjugated secondary antibody, and Hoechst 33342 dye. The Hoechst and DyLight fluorophores detect changes in nuclear morphology (blue fluorescence) and NF-κB distribution (green fluorescence), respectively. The samples were analyzed on an Arrayscan VTI HCS Reader (Thermo Scientific). The Nuclear Translocation BioApplication (Thermo Scientific) was used for image acquisition and analysis. For each well, at least 400 cells were automatically acquired and analyzed. The translocation index was calculated by measuring the average intensity difference of NF-κB between the identified cytoplasmic region and nuclear region (MEAN_CircRingAvgIntenDiffCh2).

HMEC = experiment: Anti-proliferation assay (PrestoBlue), normal cell control; format: cell-based, human; conditions: for cell death: HMEC
Description: as §4, §5

[10] = system: caspase 3/7 in BT20 cells; experiment: Caspase-Glo 3/7 activation assay; format: cell-based, human; conditions: BT20, 4 h, concentration-dependent
[11] = system: NF-κB nuclear translocation in BT20 cells; experiment: Inhibition of TNF-α activated NF-κB translocation (HCS); format: cell-based, human; conditions: BT20, 10 ng/ml TNF-α; 10 μM more significant than 32 and 100 μM
BT20 [12] = experiment: Cytochrome c release assay; format: cell-based, human; conditions: BT20, 48 h
Description: (§6) MCF-7 and BT20 cells were seeded in a 96-well plate (Corning Costar) at a density of 8,000 cells/well and were subsequently treated with 100 μM of DMDD for 48 h. The percentage of cells releasing cytochrome c from mitochondria was determined using the FlowCellect Cytochrome c Kit (Millipore) according to the manufacturer's protocol. Briefly, cells were permeabilized, fixed, and stained with either anti-IgG1-FITC Isotype control or anti-Cytochrome c-FITC dye. Data was acquired and analyzed using a Guava flow cytometer and InCyte software (Millipore).

MCF-7 [13] = experiment: Cytochrome c release assay; format: cell-based, human; conditions: MCF-7, 48 h
Description: as §6

BT20 [14] = experiment: Multi parameter cytotoxicity measurement (HCS); format: cell-based, human
Description: (§7) MCF-7 and BT20 cells were seeded in a 96-well plate (Corning Costar) at a density of 4,000 cells/well and subsequently treated with different concentrations (10, 32, 100 μM) of DMDD for 48 h. Non-treated cells and cells treated with 100 μM Valinomycin were used as negative (control) and positive controls, respectively. Afterwards, the cells were stained with a mixture of fluorescent dyes including Hoechst 33342, cell permeability dye and mitochondrial membrane potential dye (Thermo Scientific). These dyes indicated changes in nuclear morphology (Channel 1), cell membrane permeability (Channel 2) and mitochondrial transmembrane potential (Channel 3), respectively. The cells were fixed and washed, and images for each fluoroprobe were acquired at different channels using suitable filters with a 20× objective and analyzed on the Arrayscan VTI HCS Reader (Thermo Scientific). The Cell Health Profiling BioApplication (Thermo Scientific) was used for image acquisition and analysis. For each well, at least 400 cells were automatically acquired and analyzed. The average fluorescent intensity was used to quantify changes in each channel.

MCF-7 [15] = experiment: Multi parameter cytotoxicity measurement (HCS); format: cell-based, human; conditions: MCF-7, 48 h, dose-dependent
Description: as §7

caspase 8 in MCF-7 cells = experiment: Caspase-Glo 8 activation assay; format: cell-based, human; conditions: MCF-7, 4 h, depending on the concentration
Description: (§8) Caspase 3/7 and caspase 8 activities were analyzed using an in-situ luminescent maker in MCF-7 and BT20 cells respectively. Cells were seeded in a white 96-well plate (Greiner), treated with 100 μM DMDD for 4 h. Caspases activity was then determined using the Caspase-Glo 3/7 Assay (Promega) or the Caspase-Glo 8 Assay (Promega) according to the manufacturer's instructions. Briefly, cells were incubated with Caspase-Glo 3/7 substrate or Caspase-Glo 8 substrate and the luminescence of each sample was measured using a SpectraMax M2e Microplate Reader (Molecular Devices).

caspase 8 in BT20 cells = experiment: Caspase-Glo 8 activation assay; format: cell-based, human; conditions: BT20, 4 h, depending on the concentration
Description: as §8

[16] = system: caspase-3, -8, -9 expression in pancreas tissue; conditions: pancreas tissue of mice; cited from earlier work
[17] = single dose 5,000 mg/kg body weight; cited from earlier work
[18] = system: LPS-induced TNF-α production in THP-1 cells; experiment: Human TNF-α ELISA, LPS induced THP-1 cells; format: cell-based; conditions: THP-1, 12.5-50 μM pretreatment 30 min, 100 ng/ml LPS 4 h
Description: as §3, with “After washing the wells with warm RPMI 1640 medium, cells were pretreated with various concentrations of DMDD (10, 32, 100 μM) for 30 minutes followed by 100 ng/ml Salmonella enterica serotype typhimurium lipopolysaccharide (LPS) (Sigma).” left out

BT20 [19] = experiment: Oxidative stress determination (DHE, HCS); format: cell-based, human; conditions: 48 h
Description: (§9) MCF-7 and BT20 cells were seeded in a 96-well tissue culture-treated plate (Corning Costar) at a density of 8,000 cells/well and were subsequently treated with different concentrations (10, 32, 100 μM) of DMDD for 48 h. Non-treated cells served as negative control, and cells treated with 1 μM Retenone served as positive control. Afterwards, the cells were stained with Hoechst 33342 (Thermo Scientific) and dihydroethidium (DHE) (Sigma), fixed and evaluated on an ArrayScan VTI HCS Reader (Thermo Scientific). The generation of ROS in cells was quantified by the oxidation of non-fluorescent DHE to fluorescent ethidium, which subsequently binds to DNA. The Nuclear Translocation BioApplication software (Thermo Scientific) was used for image acquisition and analysis. For each well, at least 400 cells were automatically acquired and analyzed. Oxidative stress activation was assessed by the DHE staining in the nucleus and measured by the average intensity of fluorescent ethidium in the identified nuclear region (MEAN_CircAvgIntenCh2).

MCF-7 [20] = experiment: Oxidative stress determination (DHE, HCS); format: cell-based, human; conditions: 48 h
Description: as §9

CCCCCCCCCCCCC1=CC(=O)C=C(OC)C1=O [DMDD, 2-dodecyl-6-methoxycyclohexa-2,5-diene-1,4-dione]
apoptosis induction (BT20 [1]): induced apoptosis
apoptosis induction (MCF-7 [2]): induced apoptosis
percentage of G1 phase cells (BT20 [3]): 65%
percentage of G1 phase cells (MCF-7 [4]): 71%
viability of THP-1 cells (THP-1): did not affect the viability
caspase 3/7 activity vs untreated cells [5]: increased significantly
cell death (BT20 [6]; BT20, 3.2 μM): 43.8%
cell death (BT20 [6]; BT20, 10 μM): 63.5%
pIC50 (BT20 [6]; Homo sapiens, BT-20, BT20, 48 h treatment): 5.30
pIC50 (MCF-7 [7]; Homo sapiens, MCF7, MCF-7, 48 h treatment): 5.46
cell death (MCF-7 [7]; MCF-7, 3.2 μM): 49.9%
cell death (MCF-7 [7]; MCF-7, 10 μM): 84.5%
effective dosage [8]: 12.5 to 25 mg/kg
inhibition of TNF-α-induced NF-κB nuclear translocation [9]: significant inhibition
cell death (HMEC; 3.2 μM): not affected
cell death (HMEC; 10 μM): 12.7%
pIC50 (HMEC; Homo sapiens, HMEC normal cells, 48 h treatment): 4.32
caspase 3/7 activity vs untreated cells [10]: increased significantly
inhibition of TNF-α-induced NF-κB nuclear translocation [11]: significant inhibition
cytochrome c release from mitochondria (BT20 [12]): released
cytochrome c release from mitochondria (MCF-7 [13]): released
nuclear morphology (BT20 [14]; BT20, 100 μM, 48 h): nuclear condensation
mitochondrial membrane potential (BT20 [14]; BT20, 48 h, dose-dependent): loss of mitochondrial potential
plasma membrane permeability (BT20 [14]; BT20, 48 h, dose-dependent): increased plasma membrane permeability
mitochondrial membrane potential (MCF-7 [15]): loss of mitochondrial potential
plasma membrane permeability (MCF-7 [15]): increased plasma membrane permeability
caspase 8 activity increase (caspase 8 in MCF-7 cells): 2-5 fold
caspase 8 activity increase (caspase 8 in BT20 cells): 2-5 fold
caspase-3, -8, -9 expression [16]: significantly reduced
acute toxicity [17]: did not cause any acute toxicity
TNF-α level in supernatants relative to LPS alone [18]: significant reduction
ROS level versus untreated control (BT20 [19]; BT20, 10 μM): nearly two-fold
ROS level versus non-treated control (BT20 [19]; BT20, 33 μM): nearly three-fold
ROS level versus untreated control (BT20 [19]; BT20, 100 μM): nearly two-fold
ROS level versus untreated control (MCF-7 [20]; MCF-7, 10 μM): nearly two-fold
ROS level versus non-treated control (MCF-7 [20]; MCF-7, 33 μM): nearly three-fold
ROS level versus untreated control (MCF-7 [20]; MCF-7, 100 μM): nearly two-fold
